Experimental data published in US10322105B2, “Pharmaceutical composition containing Ginkgolide B and ADP receptor antagonist, preparation method thereof and use thereof” (CHENGDU BAIYU PHARMACEUTICAL CO., LTD, priority 2014, dated 2019).
Structures can show the parent of a compound that is named as a salt. Where two headings read alike, the source gives them in different places.

How the values were obtained:
[1] = test system: platelet aggregation induced by PAF; test: Platelet aggregation rate induced by PAF in platelet-rich plasma of rabbits after 7 days of administration; type: in vivo, Japanese large-ear white rabbits; details: 5.0 mg/kg once daily for 7 days; for Platelet aggregation rate 1 min / Platelet aggregation rate 5 min / Maximum platelet aggregation rate (MAX): PRP, x ± s, n = 8; for Platelet aggregation rate 1 min: 1 min after addition of 10 μL PAF; for Platelet aggregation rate 5 min: 5 min after addition of 10 μL PAF; for Maximum platelet aggregation rate (MAX): after addition of PAF; for inhibition at 5 mg/kg: Oryctolagus cuniculus, Platelet, 168 h
Protocol: (§1) All groups were administered with a clinically used route and dosage for 7 days continuously.
After 7 days of administration, 10.5 ml of blood was taken from the heart of each animal, wherein 1.5 ml of […] was used for taking serum and the rest 9 ml of […] was subjected to 3.8% sodium citrate at 1:9 for anticoagulation, centrifuging for 10 minutes at 800 r/min, and taking the supernatant to obtain platelet-rich plasma (PRP), wherein 100 μl of the PRP was taken for electron microscope examination, and the rest of the PRP was used for detecting of the platelet aggregation rate; the remaining portion was centrifuged for 15 min at a speed of 3000 r/min, and platelet-depleted plasma (PPP) was obtained. PPP was used to adjust the number of platelet in PRP, to be at 360×10^9/L. The platelet aggregation rate was recorded at 1 min, 5 min of addition of 10 μL of PAF inducer and the maximum platelet aggregation rate was recorded after the addition of PAR

platelets = test: Scanning electron microscopy study of platelet morphology after addition of PAF; type: in vivo, Japanese large-ear white rabbits; details: rabbits, 5.0 mg/kg once daily for 7 days; PRP after addition of PAF, 100 platelets observed
Protocol: as §1
The 100 μL of PRP was placed in a silicification EP tube, and 1 μL of PAF was added to induce aggregation of platelets for 15 minutes, the PRP was then placed on a copper mesh sample support laid with a Formar membrane, incubating at 37° C. for 10 min, washing with ultrapure water, fixing with 3% glutaraldehyde for 5 minutes, rewashing with ultrapure water. After the sample on the copper mesh was naturally dried, a layer of 20 nm gold film was plated on the surface of the sample, and the cell morphology was studied with an electron microscope S-3000N. 100 of platelets were observed and calculated the ratio of each type of platelet. The types of platelet under the electron microscope includes: (1) Circle type appears circular or oval, with small size, compact center, large core and low and narrow transparent periphery zone. (2) Tree like type has a single or a plurality of elongated or sheet-shaped sometimes branched foot protrudes from the dense center. (3) Flat type has a dense core in the center and a wide transparent peripheral zone which has a smooth periphery or small bulges. (4) Aggregated-type is usually composed of several to dozens of platelets, with different sizes of the aggregates, wherein the platelets are mutually connected, some of the platelets are integrally fused into a whole, and the foot processes of the peripheral part are prominent.

[2] = cited from earlier work
[3] = PLATO study, cited from earlier work
[4] = in vivo; cited from earlier work
[5] = PAF-induced, relative to Saline group

Row | Structure (SMILES) | Platelet aggregation rate 1 min [1] | Platelet aggregation rate 5 min [1] | Maximum platelet aggregation rate (MAX) [1] | inhibition at 5 mg/kg [1, 5] | Types of morphology: Circle (platelets) | Types of morphology: Flat (platelets) | Types of morphology: Tree like (platelets) | Severe bleeding rate ([2]; Clopidogrel-treated patients) | Common side effects: abdominal pain ([2]; clinical trial (CAPRIE)) | Common side effects: diarrhea ([2]; clinical trial (CAPRIE)) | Common side effects: digestive tract hemorrhage ([2]; clinical trial (CAPRIE)) | Common side effects: dyspepsia ([2]; clinical trial (CAPRIE)) | Common side effects: intracranial hemorrhage ([2]; clinical trial (CAPRIE)) | Common side effects: rash ([2]; clinical trial (CAPRIE)) | Common side effects: serious granulocyte reduction ([2]; clinical trial (CAPRIE)) | Platelet aggregation inhibition rate [1, 5] | Occurrence rate of interventricular interval ([3]; acute stage) | Occurrence rate of interventricular interval ([3]; after one month) | Occurrence rate of common side effects (digestive tract symptoms and rash) [4]
1 | COC(=O)[C@H](c1ccccc1Cl)N1CCc2sccc2C1 [Clopidogrel, (S)-alpha-(2-chlorphenyl)-6,7-dihydrothieno [3,2-c]pyridine-5-(4H)acetate hydrogen sulfate] | 35.27 ± 6.08 | 53.73 ± 8.46 | 60.96 ± 9.50 | 13.2% | 7.7 ± 7.8% | 30.7 ± 13.6 % | 24.6 ± 8.8 % | 1.4% | 6% | 5% | 2% | 5% | 0.4% | 4% | 0.04% | – | – | – | –
2 | CC1C(=O)OC2C(O)C34C5CC(C(C)(C)C)C36C(OC(=O)C6O)OC4(C(=O)O5)C12O (centres unmarked) [Ginkgolide B] | 21.36 ± 4.15 | 33.54 ± 5.48 | – | – | 31.6 ± 6.4 % | 46.1 ± 8.3 % | 15.8 ± 6.8 % | – | – | – | – | – | – | – | – | 44.66% | – | – | –
3 | CC(=O)Oc1cc2c(s1)CCN(C(C(=O)C1CC1)c1ccccc1F)C2 (centres unmarked) [Prasugrel] | 37.14 ± 8.59 | 55.56 ± 7.53 | 63.12 ± 5.47 | 10.1% | 9.9 ± 7.6 % | 25.4 ± 8.7 % | 19.6 ± 6.8 % | – | – | – | – | – | – | – | – | – | – | – | –
4 | CCCSc1nc(N[C@@H]2C[C@H]2c2ccc(F)c(F)c2)c2nnn([C@@H]3C[C@H](OCCO)[C@@H](O)[C@H]3O)c2n1 [Ticagrelor, (1S,2S,3R,5S)-3-[7-[(1R,2S)-2-(3,4-Difluorophenyl)cycloprolamino]-5-(propylsulfanyl)-3H-[1,2,3]triazolo [4,5-d]pyrimidin-3-yl]-5-(2-hydroxyethoxy) cyclopenane-1,2-diol] | 34.21 ± 5.75 | 60.50 ± 9.24 | 67.74 ± 9.36 | 3.53% | 6.2 ± 7.5% | 33.6 ± 10.7 % | 21.4 ± 9.4 % | – | – | – | – | – | – | – | – | – | 60% | 2.2% | –
5 | Clc1ccccc1CN1CCc2sccc2C1 [Ticlopidine] | – | – | – | – | – | – | – | – | – | – | – | – | – | – | – | – | – | – | about 10%
